The text below walks through data of patent US8999956B2, “N-[(het)arylalkyl)] pyrazole(thio)carboxamides and their heterosubstituted analogues” (Bayer Intellectual Property GmbH, priority 2010, dated 2015).

Molecules are shown by their SMILES. Read-outs that look alike come from different tables or passages of the source.

Series [1] can be described thus: log P by HPLC on reversed-phase column (EEC Directive 79/831 Annex V.A8). The class given is physicochemical. Here is the method:
In table 1, the log P values were determined in accordance with EEC Directive 79/831 Annex V.A8 by HPLC (High Performance Liquid Chromatography) on a reversed-phase column (C18), using the method described below: Temperature: 40° C.; […]

Series [2] relates to aflatoxines produced by Aspergillus parasiticus. Put plainly: microbe, parasite or virus in culture. The class given is cell-based.
The test system of series [3] is Blumeria graminis fsp. hordei. Put plainly: In vivo preventive test on Blumeria graminis (barley). Conditions: 500 ppm of active ingredient, evaluated 7 days after inoculation. In a few lines:
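Active compound taken up in N,N-dimethylacetamide with alkylaryl polyglycol ether emulsifier, then diluted in water to the desired concentration. Young barley plants sprayed at the stated application rate; once the coating had dried, plants were dusted with Blumeria graminis f. sp. hordei spores.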

Another series concerns Septoria tritici. Put plainly: In vivo preventive test on Septoria tritici (wheat). Conditions: 500 ppm of active ingredient, evaluated 21 days after inoculation. In a few lines:
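Compound formulated in N,N-dimethylacetamide with alkylaryl polyglycol ether emulsifier and diluted in water to the stated rate. Young wheat plants sprayed preventively; after the deposit dried, they were inoculated with a Septoria tritici spore suspension.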

The subject of the next series is Pyrenophora teres. Put plainly: In vivo preventive test on Pyrenophora teres (barley). As to conditions: 500 ppm of active ingredient, evaluated 7-9 days after inoculation. In a few lines: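 Preventive test: young barley plants received a water-diluted spray of compound formulated with DMF solvent plus alkylaryl polyglycol ether emulsifier, at the stated rate. Inoculation with an aqueous spore suspension of Pyrenophora teres followed one day after spraying.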

The subject of the next series is Sphaerotheca fuliginea. In words: In vivo preventive test on Sphaerotheca fuliginea (cucumber). As to conditions: 500 ppm of active ingredient, evaluated 7 days after inoculation. In outline:
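Young cucumber plants sprayed with compound (in DMF with alkylarylpolyglycolether emulsifier, diluted in water) at the stated application rate. Inoculated one day later with aqueous Sphaerotheca fuliginea spore suspension. Plants then held in greenhouse at approximately 23° C and approximately 70% relative humidity.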

Another series relates to Aspergillus parasiticus. Put plainly: microbe, parasite or virus in culture. The class given is cell-based.
Another series relates to Alternaria solani. In words: In vivo preventive test on Alternaria solani (tomato). Conditions: 500 ppm of active ingredient, evaluated 7 days after inoculation. In a few lines: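 Preventive set-up: Alternaria solani spores, as aqueous suspension, applied to young plants one day after spraying. Spray contained active compound formulated with N,N-dimethylformamide and emulsifier, water-diluted to the desired application rate.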

The test system of another series is Uromyces appendiculatus. Put plainly: In vivo preventive test on Uromyces appendiculatus (beans). Conditions: 100 ppm of active ingredient, evaluated 10 days after inoculation. In a few lines: (§1)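 Young plants sprayed preventively at the stated application rate with compound dissolved in acetone/N,N-dimethylacetamide plus alkylaryl polyglycol ether emulsifier and diluted with water to the desired concentration.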

The next series concerns Phakopsora pachyrhizi. Put plainly: In vivo protective test on Phakopsora pachyrhizi (soybeans). Conditions: Table N, 250 ppm of active ingredient, evaluated 11 days after inoculation.
Another series relates to Puccinia triticina. In words: In vivo preventive test on Puccinia triticina (wheat). Conditions: Table K, 500 ppm of active ingredient, evaluated 8 days after inoculation.
A further series has as its system Fusarium graminearum. As to conditions: in vivo.
The next series concerns Venturia inaequalis. Put plainly: In vivo preventive test on Venturia inaequalis (apple scab). Conditions: 100 ppm of active ingredient, evaluated 10 days after inoculation. In outline: as §1
In a further series the test system is Leptosphaeria nodorum. Put plainly: In vivo preventive test on Leptosphaeria nodorum (wheat). Conditions: 500 ppm of active ingredient, evaluated 7-9 days after inoculation. In a few lines: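 Plants were inoculated with aqueous L. nodorum spores one day after a protective spray. The spray contained the compound at the stated rate, as a water-diluted concentrate in N,N-dimethylacetamide plus alkylaryl polyglycol ether emulsifier.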

For another series, the system named is Botrytis cinerea. Put plainly: In vivo preventive test on Botrytis cinerea (beans). In outline: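 Young bean plants sprayed preventively with compound in acetone/dimethylacetamide/emulsifier diluted in water; after drying, each leaf inoculated with 2 agar pieces bearing Botrytis cinerea. Kept dark at 20° C, 100% humidity; lesion size scored at 2 days as % efficacy (0% = untreated, 100% = no disease).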

Where [4] appears, read: Table L, 500 ppm of active ingredient, lesion size 2 days after inoculation.

For orientation: logP means a log measure of how a compound divides between an organic and an aqueous phase. Read a high logP as a more lipophilic compound. In series [1], `CC(CCc1ccccc1C(F)(F)F)N(C(=O)c1c(C(F)F)nn(C)c1F)C1CC1` (stereo not drawn) [Example 221] came in with a logP of 4.09. Further, the “% Inhibition of Aflatoxin at 50 μM” value in series [2] turned out to be 100%. The Efficacy is listed as 100% in [3]; 100% in the series with Septoria tritici; 95% in the series on Pyrenophora teres; 100% in the series with Sphaerotheca fuliginea; 100% in the series on Alternaria solani; 100% in the series on Uromyces appendiculatus. Besides, the Efficacy in the series with Phakopsora pachyrhizi is 80%; with Puccinia triticina, 100%; with Fusarium graminearum, 100%; with Venturia inaequalis, 100%. For the same molecule, in the series with Aspergillus parasiticus, the “% Inhibition of fungal growth at 50 μM” value is recorded as 100%.
On to `Cn1nc(C(F)F)c(C(=O)N(C2CC2)C2CCCCC2Cc2ccccc2)c1F` (mixture of isomers) [Example 243], for which the Efficacy (in the series with Leptosphaeria nodorum; in series [3]; with Septoria tritici; in the series with Pyrenophora teres; in the series with Sphaerotheca fuliginea; in the series with Alternaria solani) was 100% throughout. The Efficacy in the series on Botrytis cinerea (setting [4]) came to 90%; in the series with Uromyces appendiculatus, 98%; with Puccinia triticina, 100%; with Fusarium graminearum, 100%; in the series with Venturia inaequalis it was 100%. In addition, the “% Inhibition of Aflatoxin at 50 μM” value in series [2] is listed as 100%. Besides, the “% Inhibition of fungal growth at 50 μM” value in the series with Aspergillus parasiticus is 100%.
On to `Cn1nc(C(F)F)c(C(=O)N(C[Si](C)(C)Cc2ccccc2)C2CC2)c1F` [Example 288], for which the Efficacy in the series with Leptosphaeria nodorum was 100%; in [3], 100%; in the series on Septoria tritici, 90%; in the series on Pyrenophora teres, 100%; with Sphaerotheca fuliginea it was 94%; with Alternaria solani it was 100%. Also, the Efficacy in the series on Botrytis cinerea (setting [4]) was determined as 100%; with Uromyces appendiculatus it was 100%; in the series on Puccinia triticina, 95%; in the series with Fusarium graminearum it was 100%; in the series on Venturia inaequalis, 100%. The molecule further displayed a logP in series [1] of 4.03. In addition, in [2], the “% Inhibition of Aflatoxin at 50 μM” value is 100%. Also, the “% Inhibition of fungal growth at 50 μM” value with Aspergillus parasiticus is on record as 99%.
`Cn1nc(C(F)F)c(C(=O)N(C2CC2)C2CCCCC2Oc2ccccc2)c1F` (stereo not drawn) [Example 244]: the Efficacy was 95% in the series on Leptosphaeria nodorum; 100% in series [3]; 100% in the series with Septoria tritici; 95% in the series on Pyrenophora teres; 100% in the series on Sphaerotheca fuliginea; 100% with Alternaria solani. Further, the Efficacy entry is listed as “at least 85%” in the series with Botrytis cinerea (500 ppm of active ingredient, lesion size 2 days after inoculation); 88% in the series on Botrytis cinerea (Table L4, dose 500 ppm, comparison with des-fluoro analogue); 88% in the series with Botrytis cinerea (setting [4]); 100% in the series with Uromyces appendiculatus; 98% in the series on Phakopsora pachyrhizi; 100% in the series on Puccinia triticina. For the same molecule, the Efficacy in the series on Fusarium graminearum and in the series with Venturia inaequalis was 100% throughout. Further, the logP in series [1] is recorded as 3.89. Besides, the “% Inhibition of Aflatoxin at 50 μM” value in series [2] (50 µM) was 99%. For the same molecule, the “% Inhibition of fungal growth at 50 μM” value with Aspergillus parasiticus (50 µM) came to 82%.
